From PMC5218480 (PLoS ONE, 2017) come the findings set out here.

This experiment has as its system MV-4-11 cells. The experiment in a line: Gene expression microarray analysis (Affymetrix PrimeView) and GSEA. To be noted: MV-4-11, 48 hours, 1 μM each. It is filed as cell-based, human.

In the case of `Nc1ncn([C@@H]2O[C@H](CO)[C@@H](O)[C@H]2O)c(=O)n1` [azacitidine], the “genes down-regulated greater than 2-fold relative to vehicle control” value turned out to be 12 genes.
